Assay results: patent US10383841B2, “Antimicrobial and antiinflammatory composition” (Denovastella AB, priority 2005, dated 2019)

Columns and labels:
Assay type in all cases: cell-based
Candida albicans H29 = assay: Agar dilution method, MIC
Protocol: (§1) The five strains of Malassezia were CBS7019 M. Furfur, CBS 1871 M. Pachydermatis, CBS7956 M. Slooffiae, CBS7966 M. Globosa and 42132 M. Sympodialis. The Staphylococcus aureus strain and Candida albicans H29 strain (grown on mycobiotic plates). Malassezias were cultured on PO plates and kept in room temperature. Candida albicans were grown on mycobiotic plates at room temperature. Preceding the first experiment the yeasts were reinoculated and stored for five days in a 32° C. thermostat. Afterwards they were continually reinoculated every week to ensure viable strains. S. aureus were refrigerated and reinoculated on a horse blood plate and incubated for one day in 37° C. before being included in any study.
(§2) DST-TG-agar (diagnostic sensitivity test agar) with a glycerol monostearate and tween content to meet the growth requirements of the Malassezias was used. […] The agar was obtained from the Microbiological Laboratories, Sahlgrenska, Gothenburg, Sweden. When received the agar was in a liquid form requiring storage at 55° C.
(§3) The oil extract from example 1 were diluted in DMF (dimethyl formamide) producing a stock solution with 20% extract and 80% DMF. A secondary stock solution was made by diluting a decided volume of the first stem solution in PBS. Finally the solutions were mixed with the soluble agar to obtain concentrations of the extract of 1, 0.5, 0.25, 0.125, 0.0625, 0.05, 0.025 and 0.0125% in the agar. Since the ethanol extract readily dissolved with the agar no emulsifier was needed. The ethanol extract was diluted directly with the agar to obtain concentrations of the extraxt of 1, 0.5, 0.125, 0.1, 0.05, 0.0125, 0.01 and 0.005% in the agar. No precipitations or supernatants were observed.
(§4) Microbes were harvested and suspended into PBS and manually counted in Barker chambers to receive concentrations of 10^7 cells/ml for the Malassezias and 10^5 cells/ml for the Staphylococci and Candida. Due to poor growth of M. globosa, M. slooffiae and emulsions were modified to contain 10^8 cells/ml in the third experiment.
(§5) Using a Pasteur micropipette, plates were inoculated with 20 μl of emulsion. Plates were inoculated with either three or four microorganisms. Control plates containing only agar and plates with mirrored concentration series of DMF and ethanol were made. Additionally, all plates had paralleled controls.
(§6) Plates were incubated in 37° C. for approximately 3 days and then read.

M. furfur CBS7019 = assay: Agar dilution method, MIC
Protocol: as §1, §2, §3, §4, §5, §6

M. globosa CBS7966 = assay: Agar dilution method, MIC
Protocol: as §1, §2, §3, §4, §5, §6

[1] = test system: M. pachydermatis CBS 1871; assay: Agar dilution method, MIC
Protocol: as §1, §2, §3, §4, §5, §6

M. slooffiae CBS7956 = assay: Agar dilution method, MIC
Protocol: as §1, §2, §3, §4, §5, §6

M. sympodialis 42132 = assay: Agar dilution method, MIC
Protocol: as §1, §2, §3, §4, §5, §6

Staphylococcus aureus = assay: Agar dilution method, MIC
Protocol: as §1, §2, §3, §4, §5, §6

[2] = test system: all microorganisms (five Malassezia strains, Candida albicans, Staphylococcus aureus); assay: Agar dilution method, summary over all microorganisms
Protocol: as §1, §2, §3
Microbes were harvested and suspended into PBS and manually counted in Barker chambers to receive concentrations of 10^7 cells/ml for the Malassezias and 10^5 cells/ml for the Staphylococci and Candida. […]
as §6

[3] = Experiment II, — = no MIC up to maximum titre of that line (Cineole 0.125%, DNS in ethanol 2.5% 0.025%)
[4] = Experiment II, agar control: poor growth

In the case of `CC12CCC(CC1)C(C)(C)O2` [Cineole, 1,8-cineole], the MIC (Candida albicans H29; [3]) is reported as 0.125%, the MIC (Candida albicans H29; Experiment III) is reported as 0.500% and the MIC (M. furfur CBS7019; [3]) is reported as 0.125%. For the same compound, the MIC (M. furfur CBS7019; Experiment III) was 0.500%, the MIC (M. globosa CBS7966; [4]) was 0.125% and the MIC (M. globosa CBS7966; Experiment III, 10^8 cells/ml) was 1.000%. It also gave an MIC (M. globosa CBS7966; Experiment III, 10^8 cells/ml, listed as 1,8-cineole) of 1.0%, an MIC [1, 3] of 0.125% and an MIC ([1]; Experiment III) of 0.500%. For the same compound, the MIC (M. slooffiae CBS7956; [4]) was 0.125%, the MIC (M. slooffiae CBS7956; Experiment III, 10^8 cells/ml) was 0.500% and the MIC (M. sympodialis 42132; [3]) was 0.0625%. The MIC (M. sympodialis 42132; Experiment III) was 0.500%, the MIC (Staphylococcus aureus; Experiment III) was 0.500% and the “highest attained MIC of studied substances” value [2] was 0.5%. The “nearly all MICs” value ([2]; subsequent experiment, four times the initial value) was 0.5%.

`C=CC1(C)CCC(C(C)C(=O)CC=C(C)C)O1` (stereo not drawn) [Davanone, davanone] gave an MIC (Candida albicans H29; [3]) of 0.0625%, an MIC (M. furfur CBS7019; [3]) of 0.0625% and an MIC (M. globosa CBS7966; [4]) of 0.025%. The MIC [1, 3] was 0.0625%, the MIC (M. slooffiae CBS7956; [4]) was 0.0125% and the MIC (M. sympodialis 42132; [3]) was 0.0125%. The MIC (Staphylococcus aureus; [3]) was 0.125% and the MIC spread ([2]; over the microorganisms) was 0.0125-0.125%.
